{"source": "patent US20220048915A1", "about": "(SHANGHAI PHARMACEUTICALS HOLDING CO., LTD., priority 2018, published 2022)", "key": {"p38β": {"target": "p38β (Homo sapiens, UniProt Q15759)", "sequence (Q15759 whole entry)": "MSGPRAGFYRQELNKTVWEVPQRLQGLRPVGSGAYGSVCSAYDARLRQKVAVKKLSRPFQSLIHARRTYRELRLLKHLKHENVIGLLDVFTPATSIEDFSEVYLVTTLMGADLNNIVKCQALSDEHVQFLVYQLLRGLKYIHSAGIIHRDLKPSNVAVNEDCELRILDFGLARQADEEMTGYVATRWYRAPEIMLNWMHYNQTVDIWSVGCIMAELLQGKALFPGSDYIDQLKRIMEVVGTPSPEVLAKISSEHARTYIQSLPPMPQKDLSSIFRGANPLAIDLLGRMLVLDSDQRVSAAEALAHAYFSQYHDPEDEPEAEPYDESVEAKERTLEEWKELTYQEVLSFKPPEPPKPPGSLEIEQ", "experiment": "In vitro inhibition of p38 kinase (LANCE Ultra TR-FRET)", "type": "biochemical"}, "BV-2 cells": {"test_system": "BV-2 cells", "experiment": "Inhibition of inflammation in LPS-stimulated BV-2 cells (ELISA of inflammatory factors)", "type": "cell-based", "details": "Mus musculus, 100 ng/mL LPS 4 hours", "experimental": "Normal cultured 8th passage BV-2 cells were taken, and inoculated separately in 96-well plates at a certain cell density. The cell culture plates were cultured at 37° C. and 5% CO2 for 24 hours.\nAfter inoculating the plate for 24 hours, the cell culture medium was removed, and then 100 μL of a 4-fold gradient dilution compound starting from 10,000 nM prepared in DMEM+10% FBS, where High control and Low control contained 0.1% DMSO without compound. With 100 μL per well, the cell culture plate was cultured at 37° C. with 5% CO2 for one hour.\nThe compound-containing cultures were removed. 100 ng/mL of LPS was prepared with DMEM+10% FBS culture medium, and then the compound was diluted in a 4-fold gradient from 10,000 nM with LPS-containing culture medium. In low control, the compound was replaced with 0.1% DMSO. In High control, 0.1% DMSO was prepared with culture medium without LPS. 100 μL per well, and the cell culture plates were cultured at 37° C. with 5% CO2 for 4 hours.\nAfter 4 hours of LPS stimulation, 110 μL of the culture solution was aspirated, and centrifuged at 2000 rpm for 2 minutes. A further 90 μl of supernatant was aspirated and immediately put into −20° C. for freezing.\nELISA kits were used to detect the expression of inflammatory factors such as IL-10, TNFα, etc. The OD450 signal values were measured by microplate reader. The in vitro inhibitory activity of the compounds was calculated according to the following formula: Inhibition rate: Inhibition rate (%)=(signal value of control−signal value of administration)/(high signal value of control−low signal value of control)×100%. And according to the inhibition rate of each concentration, Graphpad Prism 5.0 was used to curve fit the […] signal values at each concentration and calculate the corresponding IC50, which is shown in Table 1."}, "TNF-α": {"test_system": "TNF-α", "experiment": "Lipopolysaccharide (LPS)-induced inflammation model in mice, TNF-α in serum by ELISA", "type": "in vivo, C57BL/6J mice", "experimental": "Male SPF-grade C57BL/6J mice, 6-8 weeks old, provided by Shanghai Ling Chang Biotechnology Co., Ltd. Animals were housed in clean-grade plastic cages (light and dark cycle 12/12 hours, temperature 22±2° C., humidity 50±10%, pellet feed, free drinking water).\n1. Mice were weighed and administered according to an administration volume of 10 mL/kg, and oral administration by gavage was given for the first time. Each mouse was administrated at an interval of 3 minutes.\n2. One hour after the first administration, LPS 5 mpk was administered intraperitoneally at an administration volume of 10 mL/kg.\n3. 4 hours after the first administration, a second oral administration by gavage was given according to the administration volume of 10 mL/kg.\n4. 6 hours after LPS intraperitoneal injection, mice were sacrificed, serum and cerebral cortex and hippocampus were sampled. After weighing the wet weight and they were put into liquid nitrogen for quick-freezing and storage."}}, "note": "Values joined by “and” are separate entries in the source; they are usually repeats but may differ in a detail not shown here. Identical values can stand only once."}
{"molecule": "O=c1ncn2nc(Oc3ccc(F)cc3F)ccc2c1-c1c(Cl)cccc1Cl", "note": "[Compound I-4, 5-(2,6-dichlorophenyl)-2-(2,4-difluorophenoxy)-6H-pyrimido[1,6-b]pyridazin-6-one]", "values": [{"measurement": "inhibitory activity against p38β kinase compared to the positive compound", "setting": "p38β", "value": "superior inhibitory activity"}, {"measurement": "IC50", "setting": "p38β; read-out: Kinase in vitro IC50(nM) p38β", "value": 47.4, "unit": "nM"}, {"measurement": "Emax", "setting": "BV-2 cells; read-out: BV-2 Max Inh. (%)", "value": 100, "unit": "%"}, {"measurement": "IC50", "setting": "BV-2 cells; read-out: BV-2 Rf IC50", "value": 6.47, "unit": "nM"}, {"measurement": "anti-inflammatory effect compared with the VX-745_8 mpk group", "setting": "TNF-α; 8 mpk", "value": "better anti-inflammatory effect"}, {"measurement": "levels of TNF-α compared with the mouse inflammation model group (G2)", "setting": "TNF-α; 8 mpk, P<0.01", "value": "significantly reduced"}, {"measurement": "TNF-α conc.", "setting": "TNF-α; serum, individual animals, 8 mg/kg po bid interval 4 h, 6 hours after LPS 5 mpk ip", "value": "11.9 pg/mL and 127.8 pg/mL and -39.4 pg/mL and 107.7 pg/mL and 92.4 pg/mL and 17.4 pg/mL and 97.1 pg/mL and -37.7 pg/mL and 86.6 pg/mL and 58.6 pg/mL and 89.4 pg/mL and 116.9 pg/mL"}]}
